Source: PMC10535256 (ACS Omega, 2023)

Target: PehR (Ralstonia pseudosolanacearum, UniProt Q8XVM3)
Assay: biochemical

Chain of PehR (Q8XVM3 1-570): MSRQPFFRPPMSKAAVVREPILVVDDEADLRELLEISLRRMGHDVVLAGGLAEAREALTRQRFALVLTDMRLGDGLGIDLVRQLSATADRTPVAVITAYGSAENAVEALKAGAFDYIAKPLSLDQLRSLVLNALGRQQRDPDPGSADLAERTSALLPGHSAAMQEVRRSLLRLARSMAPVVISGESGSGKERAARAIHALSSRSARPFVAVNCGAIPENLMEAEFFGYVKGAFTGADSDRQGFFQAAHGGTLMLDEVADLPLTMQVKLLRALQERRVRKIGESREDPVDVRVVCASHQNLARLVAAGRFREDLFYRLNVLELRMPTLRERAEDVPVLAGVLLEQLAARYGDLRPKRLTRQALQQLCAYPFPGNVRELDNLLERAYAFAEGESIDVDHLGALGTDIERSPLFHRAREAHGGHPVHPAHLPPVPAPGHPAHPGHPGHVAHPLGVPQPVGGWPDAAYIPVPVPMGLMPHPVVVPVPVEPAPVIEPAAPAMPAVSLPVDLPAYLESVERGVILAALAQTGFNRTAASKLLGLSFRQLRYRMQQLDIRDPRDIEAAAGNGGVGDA

## Nc1ncnc2c1ncn2[C@@H]1O[C@H](COP(=O)(O)OP(=O)(O)OP(=O)(O)O)[C@H]2OC3(O[C@H]21)C([N+](=O)[O-])=CC(=[N+]([O-])O)C=C3[N+](=O)[O-] (stereo partly shown) [TNP-ATP]
  Kd: 106 µM
